Assay results published in US9630978B2, “Polycyclic-carbamoylpyridone compounds and their pharmaceutical use” (Gilead Sciences, Inc., priority 2015, dated 2017).
Read-outs that look alike come from different tables or passages of the source.

Legend:
Type in all cases: cell-based
MT4 cells = test: Cytotoxicity (CC50) in MT4 cells within the antiviral assay
Description: (§1) For the antiviral assay utilizing MT4 cells, 0.4 μL of 189X test concentration of 3-fold serially diluted compound in DMSO was added to 40 μl of cell growth medium (RPMI 1640, 10% FBS, 1% penicillin/streptomycin, 1% L-Glutamine, 1% HEPES) in each well of 384-well assay plates (10 concentrations) in quadruplicate.
(§2) 1 mL aliquots of 2×10^6 MT4 cells are pre-infected for 1 and 3 hours respectively at 37° C. with 25 μL (MT4) or of either cell growth medium (mock-infected) or a fresh 1:250 dilution of an HIV-IIIb concentrated ABI stock (0.004 m.o.i. for MT4 cells). Infected and uninfected cells are diluted in cell growth medium and 35 μL of 2000 (for MT4) cells is added to each well of the assay plates.
(§3) Assay plates were then incubated in a 37° C. incubator. After 5 days of incubation, 25 μL of 2× concentrated CellTiter-Glo™ Reagent (catalog # G7573, Promega Biosciences, Inc., Madison, Wis.) was added to each well of the assay plate. Cell lysis was carried out by incubating at room temperature for 2-3 minutes, and then chemiluminescence was read using the Envision reader (PerkinElmer).

HIV-IIIb = test: Antiviral assay in MT4 cells; conditions: MT4 cells infected with HIV-IIIb (0.004 m.o.i.), 5 days incubation, CellTiter-Glo, average over assays
Description: as §1, §2, §3

[1] = Cytotoxicity (CC50) in MT4 cells within the antiviral assay; conditions: human, MT4 cells (mock-infected); MT4 cells, 5 days incubation, CellTiter-Glo; average over assays
Description: as §1, §2, §3

[2] = Human immunodeficiency virus 1, IIIB, MT4, 120 h
[3] = MT4 cells, 5 days incubation, CellTiter-Glo, average over assays, read-out: CC50

Row | SMILES | CC50 (MT4 cells) | EC50 (HIV-IIIb) | CC50 at 5 days [1] | EC50 (HIV-IIIb; [2]) | CC50 (MT4 cells; [3])
1 | C[C@@H]1CN2C(=O)c3c(O)c(=O)c(C(=O)NCc4ccc(F)c(Cl)c4F)cn3[C@H]3CCC[C@]32O1 [Compound 73] | 3320 nM | 3.83 nM | – | – | –
2 | C[C@@H]1CO[C@@]23CCC[C@@H]2n2cc(C(=O)NCc4ccc(F)c(Cl)c4F)c(=O)c(O)c2C(=O)N13 [Compound 65] | – | – | 5530 nM | 4.13 nM | –
3 | O=C(NCc1ccc(F)c(Cl)c1F)c1cn2c(c(O)c1=O)C(=O)N1CC=CC[C@]13COC[C@H]23 [Compound 41] | – | – | 9190 nM | 2.38 nM | –
4 | C[C@@H]1CO[C@@]23CCOC[C@@H]2n2cc(C(=O)NCc4ccc(F)c(Cl)c4F)c(=O)c(O)c2C(=O)N13 [Compound 94] | – | 1.88 nM | 3990 nM | – | –
5 | O=C(NCc1c(F)cc(F)cc1F)c1cn2c(c(O)c1=O)C(=O)N1CCCC[C@]13COCC[C@H]23 [Compound 31] | – | – | – | 1.94 nM | 33600 nM
6 | O=C(NCc1ccc(F)c(Cl)c1F)c1cn2c(c(O)c1=O)C(=O)N1CC=CC[C@]13COCC[C@H]23 [Compound 25] | – | 2.42 nM | – | – | 22100 nM
7 | C[C@H]1CO[C@]23CCC[C@H]2n2cc(C(=O)NCc4ccc(F)c(Cl)c4F)c(=O)c(O)c2C(=O)N13 [Compound 69] | – | – | 15600 nM | 8.02 nM | –
8 | O=C(NCc1ccc(F)c(Cl)c1F)c1cn2c(c(O)c1=O)C(=O)N1CCO[C@]13CCCC[C@H]23 (racemic) [Compound 96] | – | – | 1370 nM | 4.43 nM | –
9 | C[C@@H]1CCO[C@@]23CCC[C@@H]2n2cc(C(=O)NCc4ccc(F)c(Cl)c4F)c(=O)c(O)c2C(=O)N13 [Compound 77] | – | – | 7270 nM | 7.02 nM | –
10 | C[C@@H]1CN2C(=O)c3c(O)c(=O)c(C(=O)NCc4ccc(F)c(Cl)c4F)cn3[C@@H]3CCC[C@@]32O1 (single isomer, unassigned) [Compound 74] | – | – | 5770 nM | 3.17 nM | –
11 | O=C(NCc1ccc(F)c(Cl)c1F)c1cn2c(c(O)c1=O)C(=O)N1CCCC[C@]13CCOC[C@H]23 [Compound 15] | 7520 nM | 4.64 nM | – | – | –
12 | O=C(NCc1ccc(F)c(Cl)c1F)c1cn2c(c(O)c1=O)C(=O)N1CCCC[C@]13COCC[C@H]23 [Compound 26] | 22100 nM | 2.63 nM | – | – | –
13 | O=C(NCc1ccc(F)c(Cl)c1F)c1cn2c(c(O)c1=O)C(=O)N1CCS[C@]13COCC[C@H]23 (racemic) [Compound 103] | – | – | – | 1.2 nM | 10800 nM
14 | O=C(NCc1ccc(F)c(Cl)c1F)c1cn2c(c(O)c1=O)C(=O)N1CCCC[C@]13COC[C@H]23 [Compound 42] | – | – | 7480 nM | 3.49 nM | –
15 | C[C@H]1CO[C@]23CCC[C@H]2n2cc(C(=O)NCc4c(F)cc(F)cc4F)c(=O)c(O)c2C(=O)N13 [Compound 70] | – | – | 16400 nM | 4.7 nM | –
16 | O=C(NCc1ccc(F)c(Cl)c1F)c1cn2c(c(O)c1=O)C(=O)N1CC=CC[C@]13CCOC[C@H]23 [Compound 14] | – | – | – | 4.62 nM | 8020 nM
17 | C[C@@H]1CO[C@@]23CCC[C@@H]2n2cc(C(=O)NCc4c(F)cc(F)cc4F)c(=O)c(O)c2C(=O)N13 [Compound 66] | – | – | 6920 nM | 2.53 nM | –
18 | C[C@H]1CCO[C@]23CCC[C@H]2n2cc(C(=O)NCc4ccc(F)c(Cl)c4F)c(=O)c(O)c2C(=O)N13 [Compound 80] | – | – | – | 11.8 nM | 17500 nM
19 | C[C@@H]1CO[C@@]23CCOC[C@@H]2n2cc(C(=O)NCc4ccc(F)c(Cl)c4F)c(=O)c(O)c2C(=O)N13 [Compound 100] | – | – | – | 1.82 nM | 7530 nM
20 | O=C(NCc1c(F)cc(F)cc1F)c1cn2c(c(O)c1=O)C(=O)N1CC=CC[C@]13COCC[C@H]23 [Compound 30] | – | – | 33100 nM | 2.59 nM | –
